The test system of data set [1] is Plasmodium falciparum. Nature of the data set: Antimalarial activity against chloroquine-sensitive Plasmodium falciparum D6 assessed as plasmodial LDH activity after 72 hrs. It counts as functional, organism-based. Particulars: D6, 72 h.
The subject of data set [2] is Leishmania donovani. Nature of the data set: Antileishmanial activity against promastigote of Leishmania donovani after 72 hrs by alamar blue assay. To be noted: Leishmania donovani, 72 h; for IC50: read-out: IC50. It counts as functional, organism-based.
Data set [3] concerns Staphylococcus aureus. Nature of the data set: Antibacterial activity against methicillin-resistant Staphylococcus aureus ATCC 33591 by CLSI method. It counts as functional, organism-based.
Data set [4] deals with Mycobacterium intracellulare. Nature of the data set: Antibacterial activity against Mycobacterium intracellulare ATCC 23068 by alamar blue assay. It counts as functional, organism-based.
Data set [5] relates to Vero. Nature of the data set: Cytotoxicity against african green monkey Vero cells up to 4.6 ug/ml after 48 hrs by neutral red assay. It counts as cell-based. Particulars: chlorocebus sabaeus.
Data set [6] has as its system Staphylococcus aureus. Kind of data set: Antibacterial activity against Staphylococcus aureus ATCC 29213 by CLSI method. It counts as functional, organism-based.
The subject of data set [7] is Leishmania donovani. Kind of data set: Antileishmanial activity against axenic amastigote of Leishmania donovani after 72 hrs by alamar blue assay. It counts as functional, organism-based. Background: The colour change of resazurin is a common sign of viable cells or microbes.
The subject of data set [8] is Cryptococcus neoformans. Kind of data set: Antifungal activity against Cryptococcus neoformans ATCC 90113 by CLSI method. It counts as functional, organism-based.
For data set [9], the system named is Aspergillus fumigatus. Kind of data set: Antifungal activity against Aspergillus fumigatus ATCC 204305 by CLSI method. It counts as functional, organism-based.
Data set [10] deals with Candida albicans. Nature of the data set: Antifungal activity against Candida albicans ATCC 90028 by CLSI method. It counts as functional, organism-based.
Data set [11] deals with Bacillus subtilis. Kind of data set: Antibacterial activity against Bacillus subtilis by CLSI method. It counts as functional.
Where [12] appears, read: Leishmania donovani, 72 h, read-out: IC50.
The mark [13] stands for this setting: Staphylococcus aureus, ATCC 33591.
The mark [14] stands for this setting: Staphylococcus aureus, ATCC 33591, read-out: IC50.

≈ marks a conversion by molar mass, not a printed value. Calls of active or inactive are those of the source.

Usually IC50 stands for the concentration at which inhibition is half-maximal. A word on the IC90: it is the point of the concentration-response curve where the effect stands at 90%. The term MBC denotes the smallest concentration meeting the test's criterion for killing. By MIC is commonly meant the lowest concentration found to suppress growth. One may read the MFC as the lowest tested concentration that kills the fungus rather than only halting it.

Regarding `Clc1cccc(Cl)c1C(c1c[nH]c2ccccc12)c1c[nH]c2ccccc12`, the IC50 in data set [1] is 12.1 µM; in data set [2] it was 80.7 µM; in [3], “Not Active”; in [4], “Not Active”; in [6] it was 2.36 µM; in data set [7] (setting [12]), 48.4 µM. The IC90 amounted to 90.8 µM in data set [2] and 81.5 µM in data set [7] (Leishmania donovani, 72 h). Besides, the MBC result in [3] and in data set [4] was “inactive” throughout. For the same molecule, the MIC result in data set [3] and in data set [4] was “inactive” each time. Moreover, the Activity entry in data set [5] was “Non-toxic”. The molecule also returned an MBC in data set [6] of 51.3 µM (≈ 20.1 µg/mL). In data set [6], this molecule yielded an MIC of 6.41 µM (≈ 2.51 µg/mL).
As to `COc1ccc(C(c2c[nH]c3ccccc23)c2c[nH]c3ccccc23)cc1`, the IC50 is 35.5 µM in data set [8]; 89 µM in data set [2]; “Not Active” in data set [3]; “Not Active” in [4]; 9.06 µM in data set [6]; “Not Active” in [7]. In addition, the MFC result in data set [8] was “inactive”. Moreover, the MIC result in data set [8], in data set [3], in data set [4] and in data set [6] was “inactive” throughout. Further, the IC90 in data set [2] is 106 µM. For the same molecule, the MBC result in data set [3], in data set [4] and in data set [6] was “inactive” throughout. In addition, the outcome in data set [9] and in [10] was inactive. The Activity result in [5] was “Non-toxic”. Further, the IC90 result in data set [7] is “inactive”.
As to `Brc1cccc(C(c2c[nH]c3ccccc23)c2c[nH]c3ccccc23)c1`, the IC50 in [8] was 5.33 µM; in data set [2], 27.4 µM; in data set [3] (setting [14]), 6.3 µM; in [4], “Not Active”; in [6], 3.75 µM; in [7] (setting [12]), 35.9 µM. This molecule returned an MFC in data set [8] of 12.5 µM (≈ 5.02 µg/mL). Besides, the MIC in data set [8], in data set [3] (setting [13]) and in data set [6] was 12.5 µM (≈ 5.02 µg/mL) throughout. For the same molecule, the IC90 in data set [2] is 59.4 µM; in data set [7] (Leishmania donovani, 72 h), 75.6 µM. The MBC entry in [3], in data set [4] and in data set [6] was “inactive” each time. In addition, the MIC result in data set [4] was “inactive”. The outcome in data set [9] and in data set [10] was inactive. Moreover, in data set [5], the Activity entry is “Non-toxic”.
Turning to `COc1ccc(C(c2c[nH]c3ccccc23)c2c[nH]c3ccccc23)cc1O`, the IC50 was 16.9 µM in [8]; 85 µM in data set [2]; 12.3 µM in [3] (setting [14]); “Not Active” in data set [4]; 7.47 µM in [6]; 42.2 µM in data set [7] (setting [12]). The same molecule showed an MFC in data set [8] of 27.2 µM (≈ 10 µg/mL). For the same molecule, the MIC worked out at 27.2 µM (≈ 10 µg/mL) in [8], 27.2 µM (≈ 10 µg/mL) in [3] (setting [13]) and 13.6 µM (≈ 5.01 µg/mL) in [6]. Also, the IC90 was 95.6 µM in data set [2] and 79.5 µM in data set [7] (Leishmania donovani, 72 h). Besides, the MBC result in data set [3], in data set [4] and in data set [6] was “inactive” each time. Moreover, the MIC result in data set [4] was “inactive”. For the same molecule, the result in [9] and in data set [10] was inactive. In addition, the Activity entry in data set [5] was “Non-toxic”.
With `O=C1N[C@@H](c2c[nH]c3cc(Br)ccc23)CN=C1c1c[nH]c2cc(Br)ccc12` [HAMACANTHIN A], the MIC in data set [11] is 3.22 µM (≈ 1.57 µg/mL); in [3] (setting [13]), 6.45 µM (≈ 3.14 µg/mL); in data set [6], 6.45 µM (≈ 3.14 µg/mL).

Values taken from ChEMBL document CHEMBL2375321, “Discovery of 3,3'-diindolylmethanes as potent antileishmanial agents” (Eur J Med Chem, 2013).
